Read-outs that look alike come from different tables or passages of the source. Square brackets hold non-standard residues; d marks the D form. Ends that are not written are not given here. AEEA = NCCOCCOCC(=O)O
What was measured:
[1] = Pharmacokinetics in mice after single subcutaneous dose; format: in vivo, C57BI L/6J mice; conditions: C57BL/6J, mouse, sc
Procedure: At each time point, samples from two mice were taken. […] Plasma samples were analyzed after solid phase extraction (SPE) by liquid chromatography mass spectrometry (LC-MS/MS).

[2] = test system: db/db mice; assay: Three weeks in vivo db/db mouse study
Procedure: Treatment Db/db mice were stratified to various treatment groups according to HbA1c levels. Mice were treated once daily with subcutaneous (SC) injections for a total of 21 days. Injection volume was 5 ml/kg. During the study body weights (BW) were recorded daily and used to administer the body weight-corrected doses of peptide. OGTT On day 16, an oral glucose tolerance test was performed in the animals. Blood glucose was measured before glucose (at t=0, baseline) and after glucose administration up to 2 hrs. Termination At termination the blood glucose levels were measured, and blood samples were analyzed for HbA1c levels. Measurements Whole blood glucose concentration (mM) was determined by the immobilized glucose oxidase method (Elite Autoanalyser, Bayer, Denmark). Blood samples were analyzed for HbA1c using the Cobas c111 analyzer (Roche Diagnostics, Mannheim, Germany).

[3] = target: T1, human CCK-B receptor (human, UniProt P32239 1-447); assay: cell-based or functional assay
T1 sequence (looked up): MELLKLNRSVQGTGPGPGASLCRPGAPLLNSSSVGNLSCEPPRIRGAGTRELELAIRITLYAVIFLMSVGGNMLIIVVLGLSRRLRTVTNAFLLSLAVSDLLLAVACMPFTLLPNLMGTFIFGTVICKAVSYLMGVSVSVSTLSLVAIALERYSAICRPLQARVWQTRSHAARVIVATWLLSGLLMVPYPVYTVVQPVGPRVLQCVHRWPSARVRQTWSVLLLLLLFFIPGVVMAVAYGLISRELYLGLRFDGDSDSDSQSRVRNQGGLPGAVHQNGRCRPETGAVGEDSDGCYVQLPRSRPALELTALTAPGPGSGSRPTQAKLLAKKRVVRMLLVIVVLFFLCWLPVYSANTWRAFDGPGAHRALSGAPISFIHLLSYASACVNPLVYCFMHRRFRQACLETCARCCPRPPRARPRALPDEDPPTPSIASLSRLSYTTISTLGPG

[4] = target: human GLP-1 receptor (human, UniProt P43220 24-463); assay: cell-based or functional assay
[5] = SC 100 nmol/kg once daily, 21 days treatment

Chain of human GLP-1 receptor (P43220 24-463): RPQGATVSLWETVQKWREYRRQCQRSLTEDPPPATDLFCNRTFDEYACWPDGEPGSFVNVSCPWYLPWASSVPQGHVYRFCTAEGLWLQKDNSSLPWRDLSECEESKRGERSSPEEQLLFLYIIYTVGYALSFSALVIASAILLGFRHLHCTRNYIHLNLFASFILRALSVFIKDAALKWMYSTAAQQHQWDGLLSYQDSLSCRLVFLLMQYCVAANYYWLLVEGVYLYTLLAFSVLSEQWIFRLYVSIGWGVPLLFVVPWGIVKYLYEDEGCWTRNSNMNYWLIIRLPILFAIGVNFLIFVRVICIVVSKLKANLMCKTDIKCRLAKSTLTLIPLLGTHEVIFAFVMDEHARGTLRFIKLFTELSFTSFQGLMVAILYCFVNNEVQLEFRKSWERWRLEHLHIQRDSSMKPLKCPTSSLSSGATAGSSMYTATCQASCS

In the case of `CCCCCCCCCCCCCCCC(=O)N[C@@H](CCC(=O)NCCCC[C@H](NC(=O)[C@H](CCC(=O)O)NC(=O)[C@@H](NC(=O)[C@H](Cc1ccccc1)NC(=O)[C@H](CC(C)C)NC(=O)[C@H](CCCNC(=N)N)NC(=O)[C@@H](NC(=O)[C@H](C)NC(=O)[C@H](CCC(=O)O)NC(=O)[C@H](CCC(=O)O)NC(=O)[C@H](CCC(=O)O)NC(=O)[C@H](CC(C)C)NC(=O)[C@H](Cc1ccc(O)cc1)NC(=O)[C@H](CCCCN)NC(=O)[C@H](CO)NC(=O)[C@H](CC(C)C)NC(=O)[C@H](CCC(=O)O)NC(=O)[C@H](CO)NC(=O)[C@@H](NC(=O)[C@H](Cc1ccccc1)NC(=O)[C@@H](NC(=O)CNC(=O)[C@H](CCC(=O)O)NC(=O)CNC(=O)[C@@H](N)Cc1c[nH]cn1)[C@@H](C)O)[C@@H](C)O)C(C)C)[C@@H](C)CC)C(=O)N[C@@H](CC(C)C)C(=O)N[C@@H](CCCCN)C(=O)NCCOCCOCC(=O)NCCOCCOCC(=O)N[C@@H](Cc1ccc(O)cc1)C(=O)NCC(=O)N[C@@H](Cc1c[nH]c2ccccc12)C(=O)N[C@@H](CC(C)C)C(=O)N[C@@H](CC(=O)O)C(=O)N[C@@H](Cc1ccccc1)C(N)=O)C(=O)O` [Compound 7], the half-life ([1]; s.c. administration of 100 nmol/kg in mice, plasma, read-out: T1/2 (converted)) is reported as 6.2 h.

`CC[C@H](C)[C@H](NC(=O)[C@H](Cc1ccccc1)NC(=O)[C@H](CC(C)C)NC(=O)[C@H](CCCNC(=N)N)NC(=O)[C@@H](NC(=O)[C@H](C)NC(=O)[C@H](CCC(=O)O)NC(=O)[C@H](CCC(=O)O)NC(=O)[C@H](CCC(=O)O)NC(=O)[C@H](CC(C)C)NC(=O)[C@H](Cc1ccc(O)cc1)NC(=O)[C@H](CCCCN)NC(=O)[C@H](CO)NC(=O)[C@H](CC(C)C)NC(=O)[C@H](CCC(=O)O)NC(=O)[C@H](CO)NC(=O)[C@@H](NC(=O)[C@H](Cc1ccccc1)NC(=O)[C@@H](NC(=O)CNC(=O)[C@H](CCC(=O)O)NC(=O)CNC(=O)[C@@H](N)Cc1c[nH]cn1)[C@@H](C)O)[C@@H](C)O)C(C)C)C(=O)N[C@@H](CCC(=O)O)C(=O)N[C@@H](Cc1ccccc1)C(=O)N[C@@H](CC(C)C)C(=O)N[C@@H](CCCCN)C(=O)N[C@@H](CC(=O)O)C(=O)N[C@@H](Cc1ccc(O)cc1)C(=O)NCC(=O)N[C@@H](Cc1c[nH]c2ccccc12)C(=O)N[C@@H](CC(C)C)C(=O)N[C@@H](CC(=O)O)C(=O)N[C@@H](Cc1ccccc1)C(N)=O` [Compound 12] showed a half-life ([1]; in vivo, 100 nmol/kg) of 5 h.

`CC[C@H](C)[C@H](NC(=O)[C@H](Cc1ccccc1)NC(=O)[C@H](CC(C)C)NC(=O)[C@H](CCCNC(=N)N)NC(=O)[C@@H](NC(=O)[C@H](C)NC(=O)[C@H](CCC(=O)O)NC(=O)[C@H](CCC(=O)O)NC(=O)[C@H](CCC(=O)O)NC(=O)[C@H](CC(C)C)NC(=O)[C@H](Cc1ccc(O)cc1)NC(=O)[C@H](CCCCN)NC(=O)[C@H](CO)NC(=O)[C@H](CC(C)C)NC(=O)[C@H](CCC(=O)O)NC(=O)[C@H](CO)NC(=O)[C@@H](NC(=O)[C@H](Cc1ccccc1)NC(=O)[C@@H](NC(=O)CNC(=O)[C@H](CCC(=O)O)NC(=O)CNC(=O)[C@@H](N)Cc1c[nH]cn1)[C@@H](C)O)[C@@H](C)O)C(C)C)C(=O)N[C@@H](CCC(=O)O)C(=O)N[C@@H](Cc1ccccc1)C(=O)N[C@@H](CC(C)C)C(=O)N[C@@H](CCCCN)C(=O)N[C@@H](CC(=O)O)C(=O)NCCOCCOCC(=O)NCCOCCOCC(=O)N[C@@H](Cc1ccc(O)cc1)C(=O)NCC(=O)N[C@@H](Cc1c[nH]c2ccccc12)C(=O)N[C@@H](CC(C)C)C(=O)N[C@@H](CC(=O)O)C(=O)N[C@@H](Cc1ccccc1)C(N)=O` [Compound 19] gave a half-life ([1]; in vivo, 100 nmol/kg) of 2.4 h.

With `CC[C@H](C)[C@H](NC(=O)[C@H](Cc1ccccc1)NC(=O)[C@H](CC(C)C)NC(=O)[C@H](CCCNC(=N)N)NC(=O)[C@@H](NC(=O)[C@H](C)NC(=O)[C@H](CCC(=O)O)NC(=O)[C@H](CCC(=O)O)NC(=O)[C@H](CCC(=O)O)NC(=O)[C@H](CC(C)C)NC(=O)[C@H](Cc1ccc(O)cc1)NC(=O)[C@H](CCCCN)NC(=O)[C@H](CO)NC(=O)[C@H](CC(C)C)NC(=O)[C@H](CCC(=O)O)NC(=O)[C@H](CO)NC(=O)[C@@H](NC(=O)[C@H](Cc1ccccc1)NC(=O)[C@@H](NC(=O)CNC(=O)[C@H](CCC(=O)O)NC(=O)CNC(=O)[C@@H](N)Cc1c[nH]cn1)[C@@H](C)O)[C@@H](C)O)C(C)C)C(=O)N[C@@H](CCC(=O)O)C(=O)N[C@@H](Cc1c[nH]c2ccccc12)C(=O)N[C@@H](CC(C)C)C(=O)N[C@@H](CCCCN)C(=O)N[C@@H](CC(=O)O)C(=O)N[C@@H](Cc1ccc(O)cc1)C(=O)NCC(=O)N[C@@H](Cc1c[nH]c2ccccc12)C(=O)N[C@@H](CC(C)C)C(=O)N[C@@H](CC(=O)O)C(=O)N[C@@H](Cc1ccccc1)C(N)=O` [Compound 23] the half-life ([1]; in vivo, 100 nmol/kg) was 6.7 h, the “body weight gain (in words)” value ([2]; 3 week course of the study) was “lowered the body weight gain” and the “Fasted BG level (mM)” value ([2]; SC 100 nmol/kg once daily, 16 days treatment) was “++ ((++) indicates fasted BG between 6 and 8 mM)”. For the same molecule, the “Delta-BW (g)” value [2, 5] was “++ ((++) indicates delta BW between 4 and 6 g)”, the “Delta-HbA1c (%)” value [2, 5] was “+++ ((+++) indicates delta-HbA1c level below 0%)” and the “OGTT, AUC (mM*min)” value ([2]; SC 100 nmol/kg once daily, after 16 days of treatment) was “++ ((++) indicates OGTT AUC between 1000 and 2000M*min)”. The “plasma levels of HbA1c (in words)” value ([2]; after 3 weeks treatment) was “lowered the plasma levels of HbA1c”, the “fasting blood glucose levels (in words)” value ([2]; after 16 days treatment) was “lowered the fasting blood glucose levels” and the “area under the glucose concentration curve (AUC) following an oral glucose challenge (in words)” value ([2]; day 16) was “lowered the area under the glucose concentration curve (AUC)”.

“H-HGEGTFTSELSKYLEEEAVRLFIEWLKNYGWLDF-NH2 [Compound 22]” showed a half-life ([1]; in vivo, s.c. administration of 100 nmol/kg in mice, plasma, read-out: T1/2 (converted)) of 8.2 h.

“h[Leu15]Gastrin17 (from UniProt P01350 76-92) (peptide)” showed an EC50, p-ERK in HEK293 cells stably expressing human CCK-B R [3] of 2.89 nM.

B1: Compound 40 (peptide)
peptide: HGEGTFTSELSKYLEEEAVRLFIEC(PEG20K)LK[AEEA][AEEA]YGWLDF-NH2
modifications: not fully specified
In the case of B1, the “EC50, cAMP induction in HEK293 cells expressing human GLP-1 R” value (“EC50, cAMP induction” for short) [4] is reported as 0.37 nM and the “EC50, p-ERK in HEK293 cells stably expressing human CCK-B R” value (shortened to “EC50, p-ERK”) [3] is reported as 133 nM.

B2: Compound 22 (peptide)
peptide: HGEGTFTSELSKYLEEEAVRLFIEWLKNYGWLDF-NH2
In the case of B2, the “EC50, cAMP induction” value [4] is reported as 0.085 nM and the “EC50, p-ERK” value [3] is reported as 31 nM.

B3: Compound 38 (peptide)
peptide: HGEGTFTSDLSKQLEEEAVRLFIECLKNXXYGWLDF
modifications: not fully specified; C(PEG5K) at position 25; 8Ado at positions 29 and 30; C-terminal amide (-NH2)
With B3 the “EC50, cAMP induction” value [4] was 0.037 nM and the “EC50, p-ERK” value [3] was 61 nM.

— patent US9861706B2, “GLP-1 receptor agonist peptide gastrin conjugates” (priority 2011, dated 2018)
